This note sets out measurements from patent publication US20260257987A1, “COMPOUNDS AND METHOD FOR UPREGULATION OF P53 THROUGH INDUCTION OF MDM2 DEGRADATION” (Georgia State University Research Foundation, Inc., priority 2022, published 2026).

The nature of data set [1]: Thiol (NAC) reactivity study by HPLC. The data set is classed as physicochemical. The method, then:
HPLC was performed on Shimadzu LC-20AT HPLC system. Condition: mobile phase A: water with 0.05% TFA; B: acetonitrile with 0.05% TFA; gradient: 5-95% B, 0-10 min; […]; 5% B 12.1-15 min. Column: C18, 3.5 μm, 4.6×150 mm; UV detector monitored at 254 nm. For the thiol reactivity assay, a 0.3 mM solution of AQ-analogs was prepared in 0.5 mL PBS: MeOH (80:20) and warmed at 37° C. Next, 25 μL of NAC (from 30 mM stock solution in PBS) was added to the above solution. The resultant solution had final concentrations of 0.3 mM AQ-analogs and 1.5 mM NAC. 20 μL of the reaction mixture was injected into the HPLC at the designated time intervals. The area percentage values were determined via the integration of the area under the curve (AUC) of the chromatogram.

For data set [2], the system named is RS4;11 cells (wild-type p53). The data set is described as follows: Cytotoxicity test of BW-AQ-365 (CCK-8) in RS4;11 cells. Conditions: for IC50: Homo sapiens, RS4. The data set is classed as cell-based. The method, then:
Cell viability was assessed by using Cell Counting Kit-8 (CCK-8, Dojindo, Japan). RS4;11 cells (wild-type p53) were cultured in RPMI-1640 medium (Corning, USA). The culture mediums were supplemented with 10% fetal bovine serum (Corning, USA) and 100 unit/ml penicillin, and […] streptomycin. […] Compounds were dissolved in DMSO (molecular biology grade, Sigma-Aldrich, USA) to make 10 mM stock solutions, which were serially diluted with the culture medium to various concentrations (final DMSO concentration=0.5%). A culture medium (50 μL) containing BW-AQ-365 was added directly to the cell suspension in each well immediately after seeding. After incubation for 24-72 h at 37° C. in a humidified atmosphere with 5% CO2, 10 μL of CCK-8 solution was added to each well, and the plate was incubated for an additional 2-4 h at 37° C. before measuring the optical density at 450 nm with a microplate reader (PerkinElmer Victor 2, USA). The cell viability of each well was calculated as the percentage of the untreated control according to the manufacturer's manual. All tests were performed in triplicates, and IC50 values were determined by non-linear regression using GraphPad Prism 9.0.

The subject of data set [3] is EU-1 (in-house cell line). The data set is described as follows: Cytotoxicity test of BW-AQ-365 (CCK-8) in EU-1 cells. The data set is classed as cell-based. To be noted: EU-1, 25000 cells/well, 24 h.
In data set [4] the test system is MDM2 level in RS4;11 cells. The data set is described as follows: Preliminary study of MDM2 level in RS4;11 cells. In kind it is cell-based.

In general, IC50 refers to the concentration that inhibits the measured activity by half. A higher IC50 goes with lower potency. With `CC(=O)CCCOc1cccc2c1C(=O)c1c(OCCCC(C)=O)cc(NC(=O)CN=[N+]=[N-])cc1C2=O` [BW-AQ-365, 2-azido-N-(9,10-dioxo-4,5-bis ((4-oxopentyl)oxy)-9,10-dihydroanthracen-2-yl)acetamide], in data set [1], the “reactivity towards thiol, in words” value is on record as “less reactivity towards thiol”. Further, the IC50 turned out to be 190 ± 10 nM in data set [2] (RS4-11, 48 h, 11, 10000 cells/well, 48 h); 610 ± 30 nM in data set [2] (RS4-11, 48 h, 11, 25000 cells/well, 48 h); 5500 ± 320 nM in data set [2] (RS4-11, 72 h, 11, 25000 cells/well, 72 h); 1550 ± 440 nM in data set [3]. In addition, the “anticancer activity in RS4;11 cells compared with BW-AQ-295” value in data set [2] (RS4;11 cells) is given as “more potent than BW-AQ-295”. Further, the “MDM2 level in RS4;11 cells” value in data set [4] was “dose-dependently decrease MDM2 level”.
